US4590178A (Ajinomoto Company, Incorporated, priority 1982, dated 1986)

System: spontaneously hypertensive rats
Test: Antihypertensive activity: systolic blood pressure measured indirectly on conscious SHR after peroral dosing
Assay type: in vivo, rat
Conditions: for Systolic Blood Pressure, Pretreatment: SHR (male, 13 months, 2 per sample), before 35 mg/kg peroral single dose; for Systolic Blood Pressure, 4 hrs after administration / Δ Blood Pressure: SHR; for Systolic Blood Pressure, 4 hrs after administration: 4 hours after 35 mg/kg peroral single dose; for Δ Blood Pressure: 4 hours after 35 mg/kg peroral single dose versus pretreatment
Protocol: The antihypertensive activity of part of the amino acid derivatives prepared above, was determined.
As subject animals 2 SHR were used which had been trained enough and been confirmed to be hypertensive spontaneously hypertensive rats (male, 13 months of age, the body weight of 400 to 440 g) per sample.
As an instrument for measuring the blood pressure a Programmed Electro-Sphygmomanometer PE-300 (Narco Co., U.S.A.) was used, and the blood pressure was indirectly measured on conscious rats.
An aqueous solution or suspension of a sample (35 mg/kg) was once force-fed into the stomach by means of a peroral probe.
An antihypertensive activity of part of the amino acid derivatives prepared above was determined.
As subject animals there were used 2 SHR which had been trained enough and been confirmed to be hypertensive spontaneously hypertensive rats (male, 13 months of age, the body weight of 400~440 g) per sample.
As an instrument for measuring the blood pressure there was used Programmed Electro-Sphygmomanometer PE-300 (Narco Co., U.S.A.), and the blood pressure was indirectly measured on conscious rats.
An antihypertensive activity of the product prepared above was determined.

Structure (SMILES)	Systolic Blood Pressure, Pretreatment [mm Hg]	Systolic Blood Pressure, 4 hrs after administration [mm Hg]	Δ Blood Pressure [mm Hg]
C[C@H](NP(=O)(OCc1ccccc1)OCc1ccccc1)C(=O)N1CCC[C@H]1C(=O)N1C[C@H](O)C[C@H]1C(=O)O.N=C(N)NCCC[C@H](N)C(=O)O (relative stereo) [Example 16, Dibenzylphosphoryl-L-alanyl-L-prolyl-trans-L-hydroxyproline L-arginine salt]	181	162	-19
C[C@H](NP(=O)(OCc1ccccc1)OCc1ccccc1)C(=O)N1C[C@H](O)C[C@H]1C(=O)N1CCC[C@H]1C(=O)O (relative stereo) [Example 17, Dibenzylphosphoryl-L-alanyl-trans-L-hydroxyprolyl-L-proline]	182	163	-19
C[C@H](NP(=O)(OCc1ccccc1)OCc1ccccc1)C(=O)N1CCC[C@H]1C(=O)O.NC(N)=NCCC[C@H](N)C(=O)O [*, Dibenzyl phosphorylL-alanyl-L-proline Larginine salt, reference compound]	198	193	-5
C[C@H](NP(=O)(OCc1ccccc1)OCc1ccccc1)C(=O)N1CCC[C@H]1C(=O)N[C@@H](Cc1ccccc1)C(=O)O.N=C(N)NCCC[C@H](N)C(=O)O [Example 5, Dibenzylphosphoryl-L-alanyl-L-prolyl-L-phenylalanyl L-arginine salt]	188	173	-15
C[C@H](NP(=O)(OCc1ccccc1)OCc1ccccc1)C(=O)N1CCC[C@H]1C(=O)NCC(=O)O.N=C(N)NCCC[C@H](N)C(=O)O [Example 6, Dibenzylphosphory-L-alanyl-L-prolyl-glycine L-arginine salt]	212	190	-22
C[C@H](NP(=O)(OCc1ccccc1)OCc1ccccc1)C(=O)N1CCC[C@H]1C(=O)N[C@@H](CCCNC(=N)N)C(=O)O [Example 13]	181	162	-19
O=C(O)[C@@H]1CCCN1C(=O)[C@@H]1CCCN1C(=O)[C@H](Cc1ccccc1)NP(=O)(Cc1ccccc1)Cc1ccccc1 [Example 20, Dibenzylphosphoryl-L-phenylalanyl-L-Prolyl-L-proline]	184	169	-15
N=C(N)NCCC[C@H](NP(=O)(Cc1ccccc1)Cc1ccccc1)C(=O)N1CCC[C@H]1C(=O)N1CCC[C@H]1C(=O)O [Example 21, Dibenzylphosphoryl-L-arginyl-L-prolyl-L-proline]	191	167	-24
O=C(O)CC[C@H](NP(=O)(OCc1ccccc1)OCc1ccccc1)C(=O)N1CCC[C@H]1C(=O)N1CCC[C@H]1C(=O)O [Example 22, Dibenzylphosphoryl-L-glutamyl-L-propyl-L-proline]	206	196	-10
C[C@H](NP(=O)(CCc1ccccc1)OCc1ccccc1)C(=O)N1CCC[C@H]1C(=O)N1CCC[C@H]1C(=O)OCc1ccccc1 (stereo partly drawn) [Example 26, N-(O-benzyl-P-phenethylphosphonyl)-L-alanyl-L-prolyl-L-proline benzylester]	182	160	-22
C[C@H](NP(=O)(CCc1ccccc1)OCc1ccccc1)C(=O)N1CCC[C@H]1C(=O)N1CCC[C@H]1C(=O)O.NC(N)=NCCC[C@H](N)C(=O)O (stereo partly drawn) [Example 27, N-(O-benzyl-P-phenethylphosphonyl)-L-alanyl-L-prolyl-L-proline L-arginine salt]	180	152	-28
C[C@H](NP(=O)([O-])CCc1ccccc1)C(=O)N1CCC[C@H]1C(=O)N1CCC[C@H]1C(=O)[O-].[Na+].[Na+] [Example 28, N-phenethylphosphonyl-L-alanyl-L-prolyl-L-proline 2 sodium salt]	183	151	-32
C[C@H](NP(=O)(O)CCc1ccccc1)C(=O)N(CC(=O)N1CCC[C@H]1C(=O)[O-])C1Cc2ccccc2C1.C[C@H](NP(=O)(O)CCc1ccccc1)C(=O)N(CC(=O)N1CCC[C@H]1C(=O)[O-])C1Cc2ccccc2C1.[Na+].[Na+] [Example 29, N-Phenethylphosphonyl-L-alanyl-N-(2-indanyl)glycyl-L-proline 2 sodium salt]	203	172	-31
C[C@H](NP(=O)(CCc1ccccc1)OCc1ccccc1)C(=O)N(CC(=O)N1CCC[C@H]1C(=O)O)C1Cc2ccccc2C1.NC(N)=NCCC[C@H](N)C(=O)O (stereo partly drawn) [Example 30, N-(O-Benzyl-P-phenethylphosphonyl)-L-alanyl-N-(2-indanyl)glycyl-L-proline L-arginine salt]	184	154	-30
C[C@H](NP(=O)(OCc1ccccc1)OCc1ccccc1)C(=O)N1CCC[C@H]1C(=O)N1CCC[C@H]1C(=O)[O-].[K+] [Example 32, Dibenzylphosporyl-L-alanyl-L-propyl-L-Proline potassium salt]	185	160	-25
CSCC[C@H](NP(=O)(OCc1ccccc1)OCc1ccccc1)C(=O)N1CCC[C@H]1C(=O)N1CCC[C@H]1C(=O)O.N=C(N)NCCC[C@H](N)C(=O)O [Example 33, Dibenzylphosphoryl-L-methionyl-L-propyl-L-proline L-arginine salt]	186	168	-18
CSCC[C@H](NP(=O)(CCc1ccccc1)OCc1ccccc1)C(=O)N1CCC[C@H]1C(=O)N1CCC[C@H]1C(=O)O.NC(N)=NCCC[C@H](N)C(=O)O (stereo partly drawn) [Example 35, N-(O-Benzyl-P-phenethylphosphonyl)-L-methionyl-L-prolyl-L-proline L-arginine salt]	191	158	-33
NCCCC[C@H](NP(=O)(O)CCc1ccccc1)C(=O)N1CCC[C@H]1C(=O)N1CCC[C@H]1C(=O)[O-].NCCCC[C@H](NP(=O)(O)CCc1ccccc1)C(=O)N1CCC[C@H]1C(=O)N1CCC[C@H]1C(=O)[O-].[Na+].[Na+] [Example 36, N^α -Phenethylphosphonyl-L-lysyl-L-prolyl-L-proline 2 sodium salt]	200	177	-23
CCOP(=O)(CCc1ccccc1)N[C@@H](CCCCN)C(=O)N1CCC[C@H]1C(=O)N1CCC[C@H]1C(=O)O.NC(N)=NCCC[C@H](N)C(=O)O (stereo partly drawn) [Example 37, N^α -(O-Ethyl-P-phenethylphosphonyl)-L-lysyl-L-prolyl-L-proline L-arginine salt]	201	172	-29
CCCCCP(=O)(O)N[C@@H](C)C(=O)N1CCC[C@H]1C(=O)N1CCC[C@H]1C(=O)[O-].CCCCCP(=O)(O)N[C@@H](C)C(=O)N1CCC[C@H]1C(=O)N1CCC[C@H]1C(=O)[O-].[Na+].[Na+] [Example 38, N-n-Amylphosphonyl-L-alanyl-L-prolyl-L-proline 2 sodium salt]	187	167	-20
CCOP(=O)(CCc1ccccc1)N[C@@H](CCSC)C(=O)N1CCC[C@H]1C(=O)N1CCC[C@H]1C(=O)O.NC(N)=NCCC[C@H](N)C(=O)O (stereo partly drawn) [Example 40, N--(O--ethyl-P--phenethylphosphonyl)-L-methionyl-L-prolyl-L-proline L-arginine salt]	196	166	-30
COP(=O)(CCc1ccccc1)N[C@@H](CCSC)C(=O)N1CCC[C@H]1C(=O)N1CCC[C@H]1C(=O)O.NC(N)=NCCC[C@H](N)C(=O)O (stereo partly drawn) [Example 41, N--(O--methyl-P--phenethylphosphonyl)-L-methionyl-L-prolyl-L-proline L-arginine salt]	203	172	-31
C[C@H](NP(=O)(CCc1ccccc1)OCc1ccccc1)C(=O)N1CCC[C@H]1C(=O)N1CCC[C@H]1C(=O)[O-].[Na+] (stereo partly drawn) [Example 42, N--(O--benzyl-P--phenethylphosphonyl)-L-alanyl-L-prolyl-L-proline sodium salt]	194	180	-14
